Laboratory results as given in ChEMBL document CHEMBL2413045, “Synthesis, self-aggregation and biological properties of alkylphosphocholine and alkylphosphohomocholine derivatives of cetyltrimethylammonium bromide, cetylpyridinium bromide, benzalkonium bromide (C16) and benzethonium chloride” (Eur J Med Chem, 2013).
≈ marks a conversion by molar mass, not a printed value.

Experiments:
[1] = test system: HeLa; experiment: Cytotoxicity against human HeLa cells after 72 hrs by MTT assay; type: functional, cell-based
[2] = test system: A549; experiment: Cytotoxicity against human A549 cells after 72 hrs by MTT assay; type: functional, cell-based; details: A549, 72 h
[3] = test system: Acanthamoeba quina; experiment: Amoebicidal activity against Acanthamoeba quina clinical isolate AcaVNAK03 assessed as minimum trophocidal concentration after 48 hrs by trypan blue exclusion assay; type: functional; details: clinical isolate AcaVNAK03, 48 h
[4] = test system: MDA-MB-231; experiment: Cytotoxicity against human MDA-MB-231 cells after 72 hrs by MTT assay; type: functional, cell-based; details: MDA-MB-231, 72 h
[5] = test system: Candida albicans; experiment: microbe, parasite or virus in culture; type: functional; details: ATCC 60193, 48 h
Description: (§1) Antimycotic activity against Candida albicans ATCC 60193 after 48 hrs by NCCLS M-27 microdilution assay

[6] = test system: Acanthamoeba lugdunensis; experiment: Amoebicidal activity against Acanthamoeba lugdunensis clinical isolate AcaVNAK02 assessed as minimum trophocidal concentration after 48 hrs by trypan blue exclusion assay; type: functional; details: clinical isolate AcaVNAK02, 48 h
[7] = test system: MCF7; experiment: Cytotoxicity against human MCF7 cells after 72 hrs by MTT assay; type: functional, cell-based; details: MCF7, 72 h
[8] = test system: CCRF-CEM; experiment: Cytotoxicity against human CCRF-CEM cells after 72 hrs by MTT assay; type: functional, cell-based
[9] = test system: HUVEC; experiment: Cytotoxicity against HUVEC after 72 hrs by MTT assay; type: ADME, cell-based; details: Homo sapiens
[10] = test system: A549; experiment: Selectivity index, ratio of IC50 for HUVEC to IC50 for human A549 cells
[11] = test system: MCF7; experiment: Selectivity index, ratio of IC50 for HUVEC to IC50 for human MCF7 cells
[12] = test system: Candida albicans; experiment: Ratio of cetylpyridinium bromide MIC to compound MIC for Candida albicans ATCC 60193; type: functional
[13] = test system: Acanthamoeba quina; details: clinical isolate AcaVNAK03
[14] = test system: Candida albicans; details: ATCC 60193
Description: as §1

[15] = test system: Acanthamoeba lugdunensis; details: clinical isolate AcaVNAK02

Row | Compound | IC50 [1] [µM] | IC50 [2] [µM] | MTC [3] [µM] | IC50 [4] [µM] | MIC [5] [µM] | MTC [6] [µM] | IC50 [7] [µM] | IC50 [8] [µM] | IC50 [9] [µM] | Ratio IC50 [10] | Ratio IC50 [11] | Ratio [12] | MIC [13] [µM] | MIC [14] [µM] | MIC [15] [µM]
1 | CCCCCCCCCCCCCCCCOP(=O)([O-])OCC[N+](C)(C)Cc1ccccc1 | 55.7 | 73.2 | > 500 | 44.3 | 8.1 (≈ 3.92 µg/mL) | > 500 | 76 | 13.8 | > 100 | – | – | – | – | – | –
2 | CCCCCCCCCCCCCCCCOP(=O)([O-])OCC[N+](C)(C)C [MILTEFOSINE] | 74.4 | 8.6 | 125 | 34.8 | 2.2 (≈ 0.897 µg/mL) | 250 | 18.9 | 20.7 | > 100 | >10 | – | – | – | – | –
3 | CCCCCCCCCCCCCCCCOP(=O)([O-])OCCC[N+](C)(C)Cc1ccccc1 | 62.1 | 57.6 | 250 | 43.7 | 7.9 (≈ 3.93 µg/mL) | 125 | 57.6 | 62.2 | > 100 | – | – | – | – | – | –
4 | CC(C)(C)CC(C)(C)c1ccc(OCCOP(=O)([O-])OCC[N+](C)(C)Cc2ccccc2)cc1 | > 100 | > 100 | 500 | > 100 | > 100 | 250 | > 100 | > 100 | > 100 | – | – | – | – | – | –
5 | CCCCCCCCCCCCCCCCOP(=O)([O-])OCC[n+]1ccccc1 | 52.1 | 9.9 | 62.5 | 45.8 | 4 (≈ 1.71 µg/mL) | 62.5 | 8.1 | 22.9 | 94 | – | >10 | – | – | – | –
6 | CC(C)(C)CC(C)(C)c1ccc(OCCOP(=O)([O-])OCCC[N+](C)(C)Cc2ccccc2)cc1 | > 100 | > 100 | 125 | > 100 | > 100 | 250 | > 100 | > 100 | > 100 | – | – | – | – | – | –
7 | CCCCCCCCCCCCCCCC[N+](C)(C)Cc1ccccc1.[Br-] | 2.8 | 0.63 | 15.6 | 3.5 | 4.5 | 15.6 | 1 | 0.9 | 7.5 | >10 | – | 2 | – | – | –
8 | CCCCCCCCCCCCCCCCOP(=O)([O-])OCCC[N+](C)(C)C | 84.4 | 41.5 | 62.5 | 61.7 | 18.2 (≈ 7.67 µg/mL) | 125 | 45.2 | 6.2 | > 100 | – | – | – | – | – | –
9 | Cetyltrimethylammonium bromide | – | – | – | – | – | – | – | – | – | – | – | – | 15.6 | 22 | 15.6
10 | CCCCCCCCCCCCCCCCOP(=O)([O-])OCCC[n+]1ccccc1 | 74.7 | 61.6 | 15.6 | 59.9 | 2.1 (≈ 0.927 µg/mL) | 250 | 50.4 | 34.6 | > 100 | – | – | – | – | – | –
